Measured values as given in publication PMC10096453, “One-Pot Synthesis and Evaluation of Antioxidative Stress and Anticancer Properties of an Active Chromone Derivative” (Molecules, 2023).
Where “and” joins values, the source holds several entries; their conditions need not be identical. Identical values can stand only once.

Key:
HEK293 cells = assay: Cell migration scratch assay, HEK293; assay type: cell-based; settings: HEK293, 100 μM, 24 and 48 h
Protocol: Cell migration in the HEK293 and the HeLa cell lines was investigated. The assay was conducted to investigate cell maintenance after being damaged. The active samples from in vitro antioxidant activity were examined. Cells were grown in a 24-well plate until 80% confluence and treated with 2f and 2j for 24 or 48 h compared to the untreated control. The cells in each well were then scratched to create a wound area across the center of the plates using a plastic 20 μL pipette tip. Cell images were taken immediately, and the scratch area was measured at 0, 24, and 48 h. During the experiment, the percentage of wound area was tracked as an indirect assessment. Compared to the control, the percentage of empty area change at each time point was quantified with a Nikon eclipse Ts2R inverted microscope.
Figure 7 A scratch assay was performed to examine the migration ability of synthesized compounds 2f and 2j at 100 μM compared with untreated control. Representative pictures of the assay induce the migration of HEK cells using quercetin as a reference. Pictures were taken at the start of the experiment (0 h) 24 and 48 h later. Pictures of representative experiments are shown, and the relative migration of cells is represented with a bar graph; means ± SD (n = 3; *: p < 0.05 and **: p < 0.001, Turkey HSD), Scale bars represent 500 μm.

HeLa cells = assay: Cell cycle analysis by flow cytometry; assay type: cell-based; settings: 24 h, 2f, 2j, quercetin at IC50, paclitaxel 5 μM
Protocol: The paclitaxel (5 μM) was performed as the positive control.
The treatment of HeLa cells and compounds was the same as in the apoptosis protocol. The cells were harvested for 200 μL and centrifuged at 600× g for 5 min and washed with PBS. The mixing cells were slowly added 200 μL of ice-cold 70% ethanol and incubated for at least 3 h at −20 °C. Cells were centrifuged and washed with PBS. Finally, cells were stained with 200 μL of Muse® cell cycle reagent and incubated at room temperature for 30 min in the dark. The cell was analyzed by flow cytometry (Guava Muse Cell Analyzer, Luminex, Austin, TX, USA).

[1] = MTT cytotoxicity assay, HACAT cells; assay type: cell-based; settings: human; for viability at 24 h, 100 µM: read-out: % Viability ± SD (at 100 μM) HACAT 24 h; for viability at 48 h, 100 µM: read-out: % Viability ± SD (at 100 μM) HACAT 48 h
Protocol: HEK293, HACAT, and HeLa cells were grown in modified Eagles’ minimum essential medium (EMEM, Gibco) with 10% fetal bovine serum (FBS, Gibco), 1% of 100 U/mL streptomycin and 100 U/mL penicillin (Gibco). Cells were seeded in culture flasks and maintained in an incubator at 37 °C in a humidified atmosphere with 5% CO2. After reaching 80–90% of confluence, cells were detached by incubation with 0.25% trypsin-0.2% EDTA (Gibco) for 5 min and plated for experiments.
This study examined cell cultures of HEK293, HACAT, and HeLa cells. The cytotoxicity of the test samples was carried out by the MTT (3-(4,5-dimethylthiazol-2-yl)-2,5-diphenyltetrazolium bromide) assay. The cells were seeded in 96-well microliter plates (2.0 × 10^4 cells/well). Stock solutions of the test compounds were prepared in DMSO. After 24 h, cells were treated with different concentrations of samples and diluted with media to obtain the final desired concentration. The treated cells were then incubated at 37 °C and 5% CO2 for 24 and 48 h. After incubation, the medium was replaced with 0.05% w/v of MTT solution in PBS and further incubated for 3 h. The solution was then discarded and DMSO was added to dissolve the formed formazan crystals. Each well’s absorbance (A) was measured at 570 nm using a microplate reader (FLUOstar Omega^TM, BMG Labtech, Ortenberg, Germany). All experiments were carried out in triplicate and repeated for at least three experiments.

[2] = ABTS radical cation scavenging assay; assay type: biochemical; settings: for EC50: read-out: ABTS734nm EC50 ± SD
Source text: Three in vitro antioxidant assays (DPPH, FRAP, and ABTS) were utilized to evaluate the antioxidant property of the synthesized compounds. The DPPH (α, α-diphenyl-β-picrylhydrazyl) assay is the well-known approach to determine antioxidant activity using a stable free radical DPPH, measure the absorbance change, and calculate the absorbance change in the percentage of scavenging activity. […] For example, the ferric-tripyridyltriazine (Fe^3+-TPTZ, colorless) complex is reduced to ferrous tripyridyltriazine (Fe^2+-TPTZ) at low pH and introduces a blue color with maximum absorption at 593 nm. The change in absorbance is related to antioxidant activity. However, a significant limitation of these in vitro tests is the non-physiological measurement conditions (no enzymatic condition and no transition metal ion chelating activity); therefore, the results obtained may not reflect the antioxidant activity of the source material under the biological conditions that exist in humans and animals. The ABTS assay involves a more drastic radical that is chemically produced. The use of ABTS for antioxidant activity determination of hydrophilic and lipophilic pure compounds has attracted interest due to its solubility in organic and aqueous media and stability in a wide pH range [31].
The ABTS assay was prepared by reaction of 5 mL of a 7 mM aqueous ABTS (2,2′-azino-bis (3-ethylbenzthiazoline-6-sulphonic acid) solution and 2.45 mM potassium persulfate solution (K2S2O8). After preparation and storage in the dark for 16 h, the radical cation solution was further diluted in ethanol to absorb about 0.7 at 734 nm. Trolox and test sample solutions were prepared in stock solution with DMSO and diluted with ethanol. A solution of 100 μL of the sample was mixed with 100 μL of the ABTS reagent in a 96-well plate. The mixture was shaken in a dark place for 10 min and incubated at 37 °C for 20 min, and the absorbance was determined at 734 nm. Absorbance determinations were recorded immediately and not more than 1 h after adding the reagent. The solution without the sample was used as a blank. All the determinations were made in triplicate. The sample’s scavenging percentage was calculated from this equation: scavenging percentage = (Absorbance control − Absorbance sample) × 100/Absorbance control. EC50 values were calculated from the relationship curve of %scavenging versus sample concentration.

| Structure (SMILES) | Cell migration vs untreated (HEK293 cells) | Cell cycle phase arrest (HeLa cells) | Cell population in G0/G1 phase (HeLa cells) | Cell population in G2/M phase (HeLa cells) | Cell population in S phase (HeLa cells) | viability at 24 h, 100 µM [1] | viability at 48 h, 100 µM [1] | ABTS734nm % Scavenging at 500 µM [2] | EC50 [2] | Cell population in S phase (HeLa cells; listed as quercetin) |
| --- | --- | --- | --- | --- | --- | --- | --- | --- | --- | --- |
| O=C(c1ccccc1)c1c(-c2ccccc2)oc2c(O)c(O)ccc2c1=O [2f, 3-Benzoyl-7,8-dihydroxy-2-phenyl-4H-chromen-4-one] | significant induction of cell migration | S phase arrest | 41.26 ± 1.21% | 24.71 ± 4.02% | 34.03% and 34.03 ± 3.81 % | 81.6 ± 8.46% | 77.1 ± 5.03% | 81.63 ± 1.80% | 10.2 ± 0.7 µM |  |
| O=C(Oc1ccc2c(=O)c(C(=O)c3ccccc3)c(-c3ccccc3)oc2c1O)c1ccccc1 [2j, 3-Benzoyl-8-hydroxy-4-oxo-2-phenyl-4H-chromen-7-yl benzoate] | significant induction of cell migration | S phase arrest | 32.90 ± 4.05% | 35.49 ± 4.98% | 31.61% and 31.61 ± 0.93 % | 72.6 ± 5.53% | 58 ± 2.63% | >95% | 22.2 ± 0.39 µM |  |
| O=c1c(O)c(-c2ccc(O)c(O)c2)oc2cc(O)cc(O)c12 [Quercetin, quercetin, reference compound] | significant induction of cell migration | S phase arrest | 35.72 ± 2.67% | 26.40 ± 0.18% | 37.88 ± 2.75 % | 85.6 ± 125% | 76.8 ± 2.32% | 88.51 ± 0.80% | 11.4 ± 0.17 µM | 37.88% |
